Test results from patent US20260365654A1, “PRMT5 INHIBITOR AND USE THEREOF” (SHANGHAI APEIRON THERAPEUTICS COMPANY LIMITED, priority 2022, published 2026).

How the values were obtained:
[1] = test system: HCT-116 MTAP(−/−)deleted cells; experiment: Inhibitory activity of compounds on the proliferation of HCT-116 MTAP(−/−)deleted cells; format: cell-based; details: Cell-Titer Glo, 8 d, 0-10,000 nM, 3-fold dilution, 10 points, 0.1% DMSO
From the text: Test case 1: Inhibitory activity of compounds on the proliferation of HCT-116 MTAP(−/−)deleted cells Materials and cells: HCT-116 MTAP(−/−)deleted cells were purchased from Botron Healthcare (China); RPMI-1640 medium, fetal bovine serum and penicillin-streptomycin were purchased from Thermo Fisher (United States); 384-well plates were purchased from PerkinElmer (United States); Cell-Titer Glo kit was purchased from Promega (United States).
Cell culture: HCT116 MTAP(−/−)deleted cells were cultured with RPMI 1640 medium containing 10% fetal bovine serum +1% penicillin-streptomycin at 37 °C in 5% CO2. Only cells in the logarithmic growth phase could be used for the test.
Test of inhibitory activity on cell proliferation: The Cell-Titer Glo kit was used to test the proliferation inhibitory activity of the compounds on HCT-116 MTAP(−/−)deleted cells. The cell concentration was adjusted, It was inoculated at 40 μL per well into a 384-well plate and incubated overnight at 37 °C in 5% CO2. 40 μL of the compound was added to each well to reach a final concentration of 0-10,000 nM (starting concentration 10,000 nM, 3-fold dilution, 10 points), and the cell plate with 0.1% DMSO content was incubated at 37 °C and 5% CO2 for 8 d. 40 μL of Cell-Titer Glo reagent was added to test cell viability.

[2] = test system: HCT-116 wild-type cells; experiment: Proliferation inhibitory activity of compound on HCT-116 Wild Type cells; format: cell-based; details: Cell-Titer Glo, 8 d, 0-10,000 nM, 2-fold dilution, 10 points, 0.1% DMSO
Method: Test case 2: Test on proliferation inhibitory activity of compound on HCT-116 Wild Type cells Materials and cells: HCT-116 wild-type cells were purchased from Botron Healthcare (China); RPMI-1640 medium, fetal bovine serum and penicillin-streptomycin were purchased from Thermo Fisher (United States); 384-well plates were purchased from PerkinElmer (United States); Cell-Titer Glo kit was purchased from Promega (United States).
Cell culture: HCT-116 wild-type cells were cultured with a RPMI-1640 medium containing […]+1% penicillin-streptomycin at 37 °C in 5% CO2. Only cells in the logarithmic growth phase could be used for the test.
Test of cell proliferation activity: Cell-Titer Glo kit was used to test the proliferation inhibitory activity of the compound on HCT-116 wild-type cells. The cell concentration was adjusted, 40 μL per well was inoculated into a 384-well plate and incubated overnight at 37 °C in […]. 40 nL of the compound was added to each well to reach a final concentration of 0-10,000 nM (starting concentration 10,000 nM, 2-fold dilution, 10 points), and the cell plate with 0.1% DMSO content was incubated at 37 °C and […] for 8 d. 40 μL of Cell-Titer Glo reagent was added to test cell viability.

| Compound | IC50 [1] [µM] | IC50 [2] [µM] | IC50 ([1]; Homo sapiens, 192 h) [µM] | IC50 ([2]; Homo sapiens, 192 h) [µM] |
| --- | --- | --- | --- | --- |
| (4-amino-7-fluimidazo[1,5-a]quinoxalin-8-yl)2-(1-methylpyr azolo[3,4-b]pyridin-5-yl)piperidin-1-methanone [Example 20] | 0.0833 | > 10 | – | – |
| Nc1nc2cc(F)c(C(=O)N3CCC(c4ccc(C(F)(F)F)cn4)C3)cc2n2cncc12 (centres unmarked) [Example 8, (4-amino-7-fluorimidazo[1,5-a]quinoxalin-8-yl)(3-(5-(trifluoromethyl)pyridin-2-yl)pyrrolidin-1-yl)methanone] | – | – | 0.396 | > 10 |
| Cn1ncc2cc(C3CCCCN3C(=O)c3ccc4nc(N)c5cncn5c4c3)cnc21 (centres unmarked) [Example 23, (4-aminoimidazo[1,5-a]quinoxalin-8-yl) 2-(1-methylpyrazolo[3,4-b]pyridin-5-yl)piperidin-1-methanone] | 0.741 | > 10 | – | – |
| Nc1nc2cc(F)c(C(=O)N3CCCC(c4ccc(C(F)(F)F)cc4)C3)cc2n2cncc12 (centres unmarked) [Example 13, (4-amino-7-fluimidazo[1,5-a]quinoxalin-8-yl)(3-(4-(trifluoromethyl)phenyl)piperidin-1-yl)methanone] | – | – | 0.458 | 4.18 |
| Nc1nc2cc(F)c(C(=O)N3CCC[C@@H](c4ccc(C(F)(F)F)cc4)C3)cc2n2cncc12 [Example 13B] | – | – | > 3 | > 10 |
| Nc1nc2ccc(C(=O)N3CCCCC3c3ccc(OC(F)(F)F)cc3)cc2n2cncc12 (centres unmarked) [Example 22, (4-aminoimidazo[1,5-a]quinoxalin-8-yl)2-(4-(trifluoromethoxy)phenyl)piperidin-1-yl ketone] | 0.0452 | 8.13 | – | – |
| Nc1nc2cc(F)c(C(=O)N3CCCC[C@@H]3c3ccc(F)cc3)cc2n2cncc12 [Example 7, (R)-(4-amino-7-fluoroimidazo[1,5-a]quinoxalin-8-yl)(2-(4-fluorophenyl)piperidin-1-yl)methanone] | – | – | 0.0243 | 1.69 |
| Nc1nc2ccc(C(=O)N3CCCCC3c3ccc4ccccc4n3)cc2n2cncc12 (centres unmarked) [Example 24] | – | – | 0.242 | > 10 |
| Nc1nc2ccc(C(=O)N3CCCC[C@@H]3c3ccc(F)cc3)cc2n2cccc12 [Example 1, (R)-(4-aminopyrrolo[1,2-a]quinoxalin-8-yl)(2-(4-fluorophenyl)piperidin-1-yl)methanone] | – | – | 3.89 | 10.8 |
| Nc1nc2cc(F)c(C(=O)N3CCC[C@H](c4ccc(C(F)(F)F)cc4)C3)cc2n2cncc12 [Example 13A] | – | – | 0.516 | > 10 |
| Nc1nc2cc(Cl)c(C(=O)N3CCOCC3c3ccc(C(F)(F)F)cc3)cc2n2cncc12 (stereo in doubt) [Example 4B, (3S)-3-[4-(trifluoromethyl)phenyl]morpholin-4-yl 4-amino-7-chloro(10-hydroimidazo[1,5-a]quinoxalin-8-yl)one] | – | – | 2.78 | 6.52 |
| Nc1nc2cc(F)c(C(=O)N3CC(c4ccc(C(F)(F)F)cn4)C3)cc2n2cncc12 [Example 10] | – | – | 0.795 | > 10 |
| Nc1nc2cc(Cl)c(C(=O)N3CCCC[C@@H]3c3ccc(F)cc3)cc2n2cncc12 [Example 6, (2R)-2-(4-fluorophenyl)piperidyl4-amino-7-chloro(10-hydroimidazo[1,5-a]quinoxalin-8-yl)one] | – | – | 0.0288 | 2.72 |
| Nc1nc2cc(F)c(C(=O)N3CCC[C@@H]3c3ccc(C(F)(F)F)cc3)cc2n2cncc12 [Example 16, (R)-(4-amino-7-fluorimidazo[1,5-a]quinoxalin-8-yl)(2-(4-(trifluoromethyl)phenyl)pyrrolidin-1-yl)methanone] | – | – | 1.3 | > 10 |
| Nc1nc2cc(F)c(C(=O)N3CCO[C@@H](c4ccc(C(F)(F)F)cc4)C3)cc2n2cncc12 [Example 15, (S)-(4-amino-7-fluoroimidazo[1,5-a]quinoxalin-8-yl)(2-(4-(trifluoromethyl)phenyl)morpholinyl)methanone] | – | – | 0.933 | > 10 |
| Nc1nc2ccc(C(=O)N3CCCCC3c3ccc(C(F)(F)F)cn3)cc2n2cncc12 (centres unmarked) [Example 21] | 0.0804 | > 10 | – | – |
| Nc1nc2ccc(C(=O)N3CCCC[C@@H]3c3ccc(F)cc3)cc2n2cncc12 [Example 14, (R)-(4-aminoimidazo[1,5-a]quinoxalin-8-yl)(2-(4-fluorophenyl)piperidin-1-yl)methanone] | – | – | 0.671 | > 10 |
| Nc1nc2cc(F)c(C(=O)N3CCC[C@H]3c3ccc(C(F)(F)F)cc3)cc2n2cncc12 [Example 17, (S)-(4-amino-7-fluorimidazo[1,5-a]quinoxalin-8-yl)(2-(4-(trifluoromethyl)phenyl)pyrrolidin-1-yl)methanone] | – | – | > 3 | > 10 |
| C[C@@H]1COC[C@H](c2ccc(C(F)(F)F)cc2)N1C(=O)c1cc2c(cc1F)nc(N)c1cncn12 [Example 12, (4-amino-7-fluorimidazo[1,5-a]quinoxalin-8-yl)((3R,5S)-3-methyl-5-(4-(trifluoromethyl)phenyl)morpholinyl)methanone] | – | – | 0.0032 | 0.0911 |
| Nc1nc2ccc(C(=O)N3CCCCC3c3cnc4cccnc4c3)cc2n2cncc12 (centres unmarked) [Example 18] | – | – | 1.4 | > 10 |
| Nc1nc2ccc(C(=O)N3CCCCC3c3ccc(Oc4ccc(F)cc4)cc3)cc2n2cncc12 (centres unmarked) [Example 19] | – | – | 0.472 | 6.38 |
| Nc1nc2cc(Cl)c(C(=O)N3CCOCC3c3ccc(C(F)(F)F)cc3)cc2n2cncc12 (stereo in doubt) [Example 4A, (3R)-3-[4-(trifluoromethyl)phenyl]morpholin-4-yl 4-amino-7-chloro(10-hydroimidazo[1,5-a]quinoxalin-8-yl)one] | – | – | 0.0065 | 0.512 |
